The source made the active and inactive calls. The calls are words filed in the database; no cut-off is given here.
Tests used:
MDA-MB-231 [1] = assay: Antitumor activity against human MDA-MB-231 cells xenografted in BALB/c-nu/nu mouse assessed as tumor growth inhibition at 2.5 mg/kg, ip measured for 24 days; format: functional; conditions: MDA-MB-231, 576 h, time 24 day, read-out: TGI
MDA-MB-231 [2] = assay: Downregulation of c-MYC mRNA level in human MDA-MB-231 cells measured after 24 hrs by RT-PCR analysis; format: functional, cell-based
[3] = system: BLM/c-MYC G4 quadruplex DNA; assay: Disruption of BLM/c-MYC G4 quadruplex DNA (unknown origin) interaction incubated for 1 hrs by ELISA; format: protein assay
MDA-MB-231 [4] = assay: Downregulation of c-MYC expression in human MDA-MB-231 cells measured after 48 hrs by western blot analysis; format: functional, cell-based
[5] = Binding affinity to human G-rich Htg22 DNA assessed as binding constant by SPR analysis
[6] = Binding affinity to G-rich HRAS DNA (unknown origin) assessed as binding constant by SPR analysis
[7] = Cytotoxicity against human HBL-100 cells assessed as reduction in cell viability measured after 48 hrs by MTT assay; format: toxicity, cell-based
MDA-MB-231 [8] = assay: Cytotoxicity against human MDA-MB-231 cells measured after 48 hrs; format: functional, cell-based
[9] = Binding affinity to Hairpin DNA (unknown origin) assessed as binding constant by SPR analysis
HepG2 [10] = assay: Cytotoxicity against human HepG2 cells assessed as reduction in cell viability measured after 48 hrs by MTT assay; format: functional, cell-based; conditions: HepG2, 48 h
Quadruplex DNA [11] = assay: Inhibition of c-MYC G4 quadruplex DNA in HEK293T cells co-transfected with Renilla and firefly luciferase assessed as decrease in relative luciferase at 2.5 to 5 uM measured after 24 hrs by dual luciferase reporter assay; format: cell-based; conditions: Homo sapiens, dose 2.5-5 µM
Quadruplex DNA [12] = assay: Stabilization of c-MYC G4 quadruplex DNA Pu22 (unknown origin) assessed as change in melting temperature at 2 uM by CD spectroscopy; format: nucleic-acid assay
[13] = Binding affinity to G-rich KRAS DNA (unknown origin) assessed as binding constant by SPR analysis
Quadruplex DNA [14] = assay: Binding affinity to c-MYC G4 quadruplex DNA Pu22 (unknown origin) assessed as binding constant by SPR analysis; format: nucleic-acid assay
MDA-MB-231 [15] = assay: Cytotoxicity against human MDA-MB-231 cells assessed as reduction in cell viability measured after 48 hrs by MTT assay; format: functional, cell-based; conditions: MDA-MB-231, 48 h
[16] = system: NM23-H2/c-MYC G4 quadruplex DNA; assay: Disruption of NM23-H2/c-MYC G4 quadruplex DNA (unknown origin) interaction incubated for 1 hrs by ELISA; format: protein assay
Quadruplex DNA [17] = assay: Inhibition of c-MYC G4 quadruplex DNA in HEK293T cells co-transfected with Renilla and firefly luciferase assessed as decrease in relative luciferase measured after 24 hrs by dual luciferase reporter assay; format: cell-based; conditions: Homo sapiens
MCF7 = assay: Cytotoxicity against human MCF7 cells measured after 48 hrs; format: functional, cell-based
RNA = assay: Binding affinity to NRAS RNA mutant (unknown origin) assessed as binding constant by SPR analysis
Quadruplex DNA [18] = assay: Binding affinity to c-MYC G4- quadruplex DNA Pu22 (unknown origin) assessed as binding constant by SPR analysis; format: nucleic-acid assay
[19] = system: DHX36/c-MYC G4 quadruplex DNA; assay: Disruption of DHX36/c-MYC G4 quadruplex DNA (unknown origin) interaction incubated for 1 hrs by ELISA; format: protein assay
SiHa = assay: Cytotoxicity against human SiHa cells measured after 48 hrs; format: functional, cell-based
HepG2 [20] = assay: Cytotoxicity against human HepG2 cells measured after 48 hrs; format: functional, cell-based
[21] = Binding affinity to G-rich NRAS RNA (unknown origin) assessed as binding constant by SPR analysis
MDA-MB-231 [22] = assay: Antitumor activity against human MDA-MB-231 cells xenografted in BALB/c-nu/nu mouse assessed as relative increment ratio at 2.5 mg/kg, ip measured for 24 days; format: functional; conditions: time 24 day
MDA-MB-231 [23] = assay: Downregulation of VEGF expression in human MDA-MB-231 cells measured after 48 hrs by western blot analysis; format: functional, cell-based
Quadruplex DNA [24] = assay: Inhibition of c-MYC G4 quadruplex DNA mutant in HEK293T cells co-transfected with Renilla and firefly luciferase assessed as decrease in relative luciferase at 2.5 to 5 uM measured after 24 hrs by dual luciferase reporter assay; format: cell-based; conditions: Homo sapiens, dose 2.5-5 µM

SMILES | Kd [5] [µM] | Kd [6] [µM] | Kd [9] [µM] | IC50 (HepG2 [10]) [µM] | ΔTm (Quadruplex DNA [12]) [°C] | Kd [13] [µM] | Kd (Quadruplex DNA [14]) [µM] | IC50 (MDA-MB-231 [15]) [µM] | Kd (RNA) [µM] | Kd (Quadruplex DNA [18]) [nM] | Kd [21] [µM] | also measured
CCn1c2ccccc2c2cc(-c3nc(-c4ccc(N5CCN(C)CC5)cc4)c(-c4ccc(N5CCN(C)CC5)cc4)n3-c3ccc(OC)cc3)ccc21 | > 20 | 15.1 | > 20 | 6.1 | 12.5 | 15.1 | > 20 | 5.1 | > 20 | 7000 | > 20 | inhibition in vivo at 2.5 mg/kg (MDA-MB-231 [1]): 55.5%; Activity (MDA-MB-231 [2]): Active; IC50 [3]: 14.6 µM; Activity (MDA-MB-231 [4]): Active; IC50 at 48 h [7]: 11.2 µM; Activity (MDA-MB-231 [8]): Active; inhibition (Quadruplex DNA [11]): Active; IC50 [16]: 25.8 µM; Activity (Quadruplex DNA [17]): Active; Activity (MCF7): Active; IC50 [19]: 5 µM; Activity (SiHa): Active; Activity (HepG2 [20]): Active; Activity (MDA-MB-231 [22]): 72.3%
CCn1c2ccccc2c2cc(-c3nc(-c4ccc(N5CCN(C)CC5)cc4)c(-c4ccc(N5CCN(C)CC5)cc4)n3-c3ccc(OCCOCCO)cc3)ccc21 | > 20 | 5.9 | > 20 |  | 20.8 | 8.2 | > 20 |  | > 20 | 2600 | 15.8 | IC50 [3]: 3.9 µM; IC50 [16]: 1.1 µM; IC50 [19]: 8.2 µM
COc1ccc(-n2c(-c3ccc4c(c3)c3ccccc3n4Cc3cn(CCOCCO[C@@H]4O[C@H](COC(C)=O)[C@@H](OC(C)=O)[C@H](OC(C)=O)[C@H]4OC(C)=O)nn3)nc(-c3ccc(N4CCN(C)CC4)cc3)c2-c2ccc(N3CCN(C)CC3)cc2)cc1 | > 20 | > 20 | > 20 | 11 | 15.9 | > 20 | > 20 | 6.4 | > 20 | 3000 | > 20 | IC50 at 48 h [7]: 19.3 µM
Cc1sc2c(c1C)C(c1ccc(Cl)cc1)=NC(CC(=O)OC(C)(C)C)c1nnc(C)n1-2 (configuration not stated) |  |  |  |  |  |  |  |  |  |  |  | Activity (MDA-MB-231 [2]): Active; Activity (MDA-MB-231 [4]): Active; inhibition (Quadruplex DNA [11]): Active; Activity (MDA-MB-231 [23]): Active; Activity (Quadruplex DNA [17]): Active; Activity (Quadruplex DNA [24]): Active
CCn1c2ccccc2c2cc(-c3nc(-c4ccc(N5CCN(C)CC5)cc4)c(-c4ccc(N5CCN(C)CC5)cc4)n3-c3ccc(OCCOCCOC4(C)O[C@H]5O[C@H](COC(C)=O)[C@@H](OC(C)=O)[C@H](OC(C)=O)[C@H]5O4)cc3)ccc21 (single isomer, unassigned) | > 20 | 13.9 | > 20 | 3 | 22.1 | 12.7 | > 20 | 2.9 | > 20 | 1800 | > 20 | IC50 [3]: 6.8 µM; IC50 at 48 h [7]: 77.8 µM; IC50 [16]: 3.7 µM; IC50 [19]: 15.9 µM
CCn1c2ccccc2c2cc(-c3nc(-c4ccc(N5CCN(C)CC5)cc4)c(-c4ccc(N5CCN(Cc6cn(CCOCCO[C@@H]7O[C@H](CO)[C@@H](O)[C@H](O)[C@H]7O)nn6)CC5)cc4)[nH]3)ccc21 (single isomer, unassigned) | > 20 | 2.5 | > 20 |  | 19.2 | 4.8 | > 20 |  | > 20 | 1700 | 11.7 | 
CCn1c2ccccc2c2cc(-c3nc(-c4ccc(N5CCN(C)CC5)cc4)c(-c4ccc(N5CCN(C)CC5)cc4)n3-c3ccc(OCCCOC4(C)O[C@H]5O[C@H](COC(C)=O)[C@@H](OC(C)=O)[C@H](OC(C)=O)[C@H]5O4)cc3)ccc21 (single isomer, unassigned) | > 20 | > 20 | > 20 | 7.8 | 16 | > 20 | > 20 | 3.6 | > 20 | 4100 | > 20 | IC50 at 48 h [7]: 4.4 µM
CCn1c2ccccc2c2cc(-c3nc(-c4ccc(N5CCN(C)CC5)cc4)c(-c4ccc(N5CCN(C)CC5)cc4)n3-c3ccc(OCCOCCO[C@@H]4O[C@H](CO)[C@@H](O)[C@H](O)[C@H]4O)cc3)ccc21 (single isomer, unassigned) | > 20 | > 20 | > 20 | > 32 | 18 | > 20 | > 20 | > 32 | > 20 | 1600 | > 20 | 
CCn1c2ccccc2c2cc(-c3nc(-c4ccc(N5CCN(C)CC5)cc4)c(-c4ccc(N5CCN(C)CC5)cc4)n3-c3ccc(OCCCO[C@@H]4O[C@H](CO)[C@@H](O)[C@H](O)[C@H]4O)cc3)ccc21 (single isomer, unassigned) | > 20 | 14.3 | > 20 | > 32 | 16.7 | 15 | > 20 | > 32 | > 20 | 1800 | > 20 | 
CCn1c2ccccc2c2cc(-c3nc(-c4ccc(N5CCN(C)CC5)cc4)c(-c4ccc(N5CCN(C)CC5)cc4)n3-c3ccc(OCCOCCO[C@@H]4O[C@H](CO)[C@@H](O)[C@H](O)[C@H]4NC(=O)C(F)(F)F)cc3)ccc21 (single isomer, unassigned) | > 20 | 19.9 | > 20 | > 32 | 16.3 | 17.9 | > 20 | > 32 | > 20 | 4100 | 16.1 | 
CCn1c2ccccc2c2cc(-c3nc(-c4ccc(N5CCN(C)CC5)cc4)c(-c4ccc(N5CCN(Cc6cn(CCOCCO[C@@H]7O[C@H](COC(C)=O)[C@@H](OC(C)=O)[C@H](OC(C)=O)[C@H]7OC(C)=O)nn6)CC5)cc4)[nH]3)ccc21 (single isomer, unassigned) | > 20 | 8.2 | > 20 | > 32 | 17.8 | 17.2 | > 20 | > 32 | > 20 | 1000 | > 20 | 
CCn1c2ccccc2c2cc(-c3nc(-c4ccc(N5CCN(C)CC5)cc4)c(-c4ccc(N5CCN(Cc6cn([C@@H]7O[C@H](CO)[C@H](O)[C@H](O)[C@H]7O)nn6)CC5)cc4)[nH]3)ccc21 (single isomer, unassigned) | > 20 | 2.7 | > 20 |  | 18.4 | 5.8 | > 20 |  | > 20 | 1600 | 9.9 | 
CCn1c2ccccc2c2cc(-c3nc(-c4ccc(N5CCN(C)CC5)cc4)c(-c4ccc(N5CCN(C)CC5)cc4)n3-c3ccc(OCCCO[C@@H]4O[C@H](CO)[C@H](O)[C@H](O)[C@H]4O)cc3)ccc21 (single isomer, unassigned) | > 20 | 16.6 | > 20 | > 32 | 16.9 | > 20 | > 20 | > 32 | > 20 | 1400 | > 20 | 
COc1ccc(-n2c(-c3ccc4c(c3)c3ccccc3n4Cc3cn(CCOCCO[C@@H]4O[C@H](CO)[C@@H](O)[C@H](O)[C@H]4O)nn3)nc(-c3ccc(N4CCN(C)CC4)cc3)c2-c2ccc(N3CCN(C)CC3)cc2)cc1 (single isomer, unassigned) | > 20 | 15.5 | > 20 | > 32 | 17.7 | 17.8 | > 20 | > 32 | > 20 | 2200 | 19.2 | 
CCn1c2ccccc2c2cc(-c3nc(-c4ccc(N5CCN(C)CC5)cc4)c(-c4ccc(N5CCN(C)CC5)cc4)n3-c3ccc(OCCOCCO[C@@H]4O[C@H](CO)[C@H](O)[C@H](O)[C@H]4O)cc3)ccc21 (single isomer, unassigned) | > 20 | 14.4 | > 20 | > 32 | 16.2 | 18.2 | > 20 | > 32 | > 20 | 2000 | 16.4 | 

Reference: ChEMBL document CHEMBL5104180, “Design, Synthesis, and Evaluation of New Sugar-Substituted Imidazole Derivatives as Selective c-MYC Transcription Repressors Targeting the Promoter G-Quadruplex” (J Med Chem, 2022)
